Article PMC12431657, “Discovery and mechanistic insights of dibenzoylmethane as a broad spectrum inhibitor of coronavirus” (PLOS Pathogens, 2025)
Where “and” joins values, the source holds several entries; their conditions need not be identical. Equal entries are not always repeated. Structures can show the parent of a compound that is named as a salt. Where two headings read alike, the source gives them in different places.

What was measured:
HCoV-OC43 [1] = assay: microbe, parasite or virus in culture; format: cell-based; details: for inhibition at 10 µM: Betacoronavirus 1, OC43, 24 h, read-out: OC43 Inhibition rate
Huh-7 cells = assay: Cytotoxicity assay (CCK-8), Huh-7 cells
HCoV-OC43 [2] = assay: Time-of-addition assay; format: cell-based
Protocol: To obtain further insight into the stage at which DBM inhibits the replication of HCoV-OC43 and other HCoVs, RD cells were incubated with compounds, including DBM, remdesivir (RDV), and chloroquine (CQ), at different stages of viral infection. Viral RNA from the supernatant was extracted and quantitatively analysed via qRT-PCR. […] For the viral binding assay, cells were cultured in the presence or absence of DBM at different concentrations for 1 hour before being infected with HCoV-OC43 at an MOI of 50, and then were placed on ice for 2 hours for the viral particles to bind to the membrane of the host cells, followed by washing with PBS. […] In addition to binding to receptors from host cells, the spike proteins of HCoV-OC43 could also trigger membrane fusion when HCoV-OC43 spike plasmid-transfected 293T cells were seeded together with RD cells as target cells, and the addition of DBM had no effect on this process (S5C Fig). To examine whether DBM inhibits viral internalisation, cells were inoculated with HCoV-OC43 for 1 hour on ice before being treated with either DBM or DMSO, and CQ was included to prevent endosomal acidification. Subsequently, HCoV-OC43 nucleocapsid proteins were immunostained with CoraLite Plus 488 to assess viral internalisation via confocal microscopy. […] To determine whether DBM influences viral release, we quantified viral RNA both intracellularly and in the supernatant.
To evaluate the effects of DBM on the life cycle of HCoV-229E and HCoV-OC43, fresh culture medium containing 0.6 μM DBM, 0.1 μM remdesivir (RDV), or 10 μM chloroquine (CQ) was supplemented with preseeded cells at different time points relative to infection (entry group: 0 to –2 hours; postinfection group: 2–12 hours; and full-time group: 0 to –12 hours). DMSO served as the control. At 24 hours postinfection, the number of intracellular virus RNA copies was quantified by qRT-PCR as previously described.

HCoV-229E [3] = assay: Antiviral activity in vitro, viral RNA copies by qRT-PCR, HCoV-229E in Huh-7 cells; format: cell-based; parameters: EC50 (229E, Huh-7): dose-response value per replicate: scale not given here
HCoV-OC43 [4] = assay: Antiviral activity in vitro, qRT-PCR, HCoV-OC43 in Huh-7 cells; format: cell-based; details: Betacoronavirus 1, OC43, Huh-7, 24 h, read-out: EC50 HCoV-OC43 (Huh-7)
HCoV-OC43 [5] = details: Ingenol 3,20-dibenzoate 10 mpk oral QD; day 2; one value per mouse
HCoV-OC43 [6] = assay: Antiviral activity in vitro, qRT-PCR, HCoV-OC43 in RD cells; format: cell-based; parameters: EC50 (OC43, RD): dose-response value per replicate: concentration or dose not given beside the values
HCoV-229E [7] = assay: Antiviral activity in vitro, qRT-PCR, HCoV-229E in MRC-5 cells; format: cell-based
HCoV-229E [8] = assay: HTS luminescent cell viability assay, HCoV-229E infection; format: cell-based; details: for inhibition at 10 µM: Human coronavirus 229E, 24 h, read-out: 229E Inhibition rate
HCoV-229E [9] = tested on: HCoV-229E; parameters: species or system Huh-7; HTS, protection from HCoV-229E induced cell death, luminescent cell viability (CellCounting-Lite 2.0), inhibition rate; details: 24 h, 10 µM; inhibitor
HCoV-OC43 [10] = tested on: HCoV-OC43; parameters: species or system RD; HTS, protection from HCoV-OC43 induced cell death, luminescent cell viability (CellCounting-Lite 2.0), inhibition rate; details: 24 h, 10 µM; inhibitor
RD cells = format: cell-based
HCoV-OC43 [11] = assay: HCoV-OC43 replication in siRNA-transfected cells; format: cell-based; details: replicates
[12] = compound 10 μM, 24 h postinfection

CC[C@@]1(O)C(=O)OCc2c1cc1n(c2=O)Cc2cc3c(N)cccc3nc2-1 [9-amino-CPT]
OC43 Inhibition rate (HCoV-OC43 [1]; [12]): -9.5%

C=C(C)C(CC=C(C)C)Cc1c(O)cc(OC)c2c1O[C@H](c1ccc(O)cc1OC)CC2=O (stereo partly drawn) [(2S)-2’-methoxykurarinone]
selectivity index (SI) (Huh-7 cells; CC50 versus EC50, HCoV-229E in Huh-7 and HCoV-OC43 in RD cells): below 25

C[S@@+]([O-])CCCCN=C=S [(R)-sulforaphane]
selectivity index (SI) (Huh-7 cells): below 25

CCN(CC)CCCC(C)Nc1ccnc2cc(Cl)ccc12 (stereo not shown) [CQ]
time-of-addition, viral inhibition (HCoV-OC43 [2]): 99.3

CC1=C[C@]23C(=O)[C@@H](C=C(COC(=O)c4ccccc4)[C@@H](O)[C@]2(O)[C@H]1OC(=O)c1ccccc1)[C@H]1[C@@H](C[C@H]3C)C1(C)C [Ingenol 3,20-dibenzoate, ingenol 3,20-dibenzoate]
EC50 (HCoV-229E [3]; Human coronavirus 229E, Huh-7, 24 h, read-out: EC50 HCoV-229E (Huh-7)): < 80 nM
EC50 (HCoV-OC43 [4]): < 80 nM
Body weight changes (HCoV-OC43 [5]): DIED
EC50 (HCoV-OC43 [6]; Betacoronavirus 1, OC43, RD, 24 h, read-out: EC50 HCoV-OC43 (RD)): < 80 nM
HCoV-229E, MRC-5: inhibition at the concentration (Fig2B) (HCoV-229E [7]): 90.2
EC50 (HCoV-229E [7]; Human coronavirus 229E, MRC5, 24 h, read-out: EC50 HCoV-229E (MRC-5)): 100 nM

CO[C@@H]1C[C@@H](C[C@H]2CC[C@H](C)[C@H]([C@@H](C)C(=O)O)O2)O[C@]2(O[C@](C)([C@H]3CC[C@@](C)([C@@H]4O[C@@H]([C@H]5O[C@@](O)(CO)[C@H](C)C[C@@H]5C)C[C@@H]4C)O3)C[C@H]2C)[C@@H]1C [Nigericin (sodium salt)]
229E Inhibition rate (HCoV-229E [8]; 10 µM): 0.0%
OC43 Inhibition rate (HCoV-OC43 [1]; 10 µM): 8.7%

O=C(O)c1cc(C(=O)O)c2c(n1)C(=O)C(=O)c1cc(C(=O)O)[nH]c1-2 [Pyrroloquinoline quinone (disodium salt)]
229E Inhibition rate (HCoV-229E [8]; [12]): 4.0%
OC43 Inhibition rate (HCoV-OC43 [1]; [12]): -0.3%

O=C(O)c1cc(C(=O)O)c2c(n1)C(=O)C(=O)c1cc(C(=O)O)[nH]c1-2 [Pyrroloquinoline quinone]
inhibition at 10 µM (HCoV-229E [8]): 4.2%
inhibition at 10 µM (HCoV-OC43 [1]): -0.2%

CC1=C2[C@H]3OC(=O)[C@@H](C)[C@@H]3CC[C@@]2(C)C=CC1=O [Santonin]
229E Inhibition rate (HCoV-229E [9]): 22.7%
OC43 Inhibition rate (HCoV-OC43 [10]): -0.5%

C[C@H]1CC[C@@H]2N(C1)C[C@H]1[C@@H]3C[C@H]4[C@@H](CC(=O)[C@H]5C[C@@H](O)CC[C@@]54C)[C@@H]3CC[C@H]1[C@]2(C)O [Sipeimine]
229E Inhibition rate (HCoV-229E [9]): 43.3%
OC43 Inhibition rate (HCoV-OC43 [10]): -1%

Nc1ncnc2c1ccn2[C@@H]1O[C@H](CO)[C@@H](O)[C@H]1O [Tubercidin]
inhibition at 10 µM (HCoV-229E [8]): 12.9%
inhibition at 10 µM (HCoV-OC43 [1]): 1.9%

O=c1cc(-c2ccc(O)cc2)oc2c([C@@H]3O[C@H](CO)[C@@H](O)[C@H](O)[C@H]3O)c(O)cc(O)c12 [Vitexin]
229E Inhibition rate (HCoV-229E [9]): 10.4%
OC43 Inhibition rate (HCoV-OC43 [10]): 0%

C[C@H]1CC[C@@H]2N(C1)C[C@H]1[C@@H]3C[C@H]4[C@@H](CC(=O)[C@H]5C[C@H](O)CC[C@@]54C)[C@@H]3CC[C@H]1[C@]2(C)O [Yubeinine]
229E Inhibition rate (HCoV-229E [9]): 8.8%
OC43 Inhibition rate (HCoV-OC43 [10]): 0%

C/C=C/c1cc(OC)c(OC)cc1OC [alpha-Asarone]
229E Inhibition rate (HCoV-229E [9]): 14.4%
OC43 Inhibition rate (HCoV-OC43 [10]): 1.2%

C[C@@H]1[C@H](O)[C@@H](C)/C=C/C=C/C=C/C=C/C=C/C=C/C=C/[C@H](O[C@@H]2O[C@H](C)[C@@H](O)[C@H](N)[C@@H]2O)C[C@@H]2O[C@](O)(C[C@@H](O)C[C@@H](O)[C@H](O)CC[C@@H](O)C[C@@H](O)CC(=O)O[C@H]1C)C[C@H](O)[C@H]2C(=O)O [amphotericin B, reference compound]
selectivity index (SI) (Huh-7 cells): below 25

COc1ccc(-c2oc3c(CC=C(C)C)c(O)cc(O)c3c(=O)c2O[C@@H]2O[C@@H](C)[C@H](O)[C@@H](O)[C@H]2O)cc1 [baohuoside I]
selectivity index (SI) (Huh-7 cells): below 25

COC[C@@H]1CCCN1S(=O)(=O)c1ccc2c(c1)C(=O)C(=O)N2 [caspase-3/7 inhibitor I, (S)-(+)-5-[1-(2-methoxymethylpyrrolidinyl)sulfonyl]isatin, reference compound]
suppression of viral replication (HCoV-OC43 [6]; HCoV-OC43, cell line not printed (S6C Fig)): not effective

CN[C@@H](C)[C@H]1[C@H](O)C[C@@]2(C)[C@@H]3CC[C@H]4C(C)(C)[C@@H](NC)CC[C@@]45C[C@@]35CC[C@]12C [cyclovirobuxine D]
EC50 (229E, Huh-7): dose-response value per replicate (HCoV-229E [3]): 87.1 and 91.6 and 92.1 and 83.4 and 77.4 and 88.7 and 0.1 (10×) and 27 and 13.3
selectivity index (SI) (Huh-7 cells): below 25
EC50 (OC43, RD): dose-response value per replicate (HCoV-OC43 [6]): 99.7 (3×) and 96.3 and 96.5 and 96.2 and 73.1 and 73 (2×) and 5.5 and 61.2 and 59.8 and 79.4 and 78.3 and 79.9 and 42.6 and 41.4 and 42

COC(=O)[C@H]1[C@H]2C[C@@H]3c4[nH]c5ccccc5c4CCN3C[C@H]2C[C@@H](OC(=O)c2cc(OC)c(OC)c(OC)c2)[C@@H]1OC [deserpidine, reference compound]
selectivity index (SI) (Huh-7 cells): below 25

CC(=O)OC/C1=C\[C@H]2[C@@H](OC(=O)/C=C/c3ccccc3)[C@@H](C)C[C@]2(OC(C)=O)C(=O)/C(C)=C/[C@@H]2[C@H](CC1)C2(C)C [euphorbia factor L7a]
selectivity index (SI) (Huh-7 cells): below 25

C=C1C(=O)[C@@]23[C@@H]4OC5O[C@@]2(O)[C@@H](O)[C@@H]2C(C)(C)CC[C@@H](O)[C@]52[C@@H]3CC[C@@H]14 [ponicidin]
selectivity index (SI) (Huh-7 cells): below 25

C=C(C)[C@H](CC=C(C)C)Cc1c(O)cc(O)c2c1O[C@H](c1ccc(O)cc1O)CC2=O [sophoraflavanone G]
selectivity index (SI) (Huh-7 cells): below 25

C[C@H]1CC[C@@H]2[C@@H](C)[C@H]3[C@H](C[C@H]4[C@@H]5CC=C6C[C@@H](O[C@@H]7O[C@H](CO)[C@H](O)[C@H](O[C@@H]8O[C@H](CO)[C@@H](O)[C@H](O)[C@H]8O)[C@H]7O[C@@H]7O[C@@H](C)[C@H](O)[C@@H](O)[C@H]7O)CC[C@]6(C)[C@H]5CC[C@]34C)N2C1 [α-Solanine]
229E Inhibition rate (HCoV-229E [9]): 9.3%
OC43 Inhibition rate (HCoV-OC43 [10]): 23.1%

C[C@H]1CCC[C@@H](O)CCC/C=C/c2cc(O)cc(O)c2C(=O)O1 [β-Zearalenol]
229E Inhibition rate (HCoV-229E [9]): 60.6
OC43 Inhibition rate (HCoV-OC43 [10]): 39.8

ALG11-2 (sense GGUGCCUGUGCAAGUUGUUTT; antisense AACAACUUGCACAGGCACCTT; chemistry not given here)
Relative mRNA content of the targeted gene after siRNA knockdown (Fig5D) (RD cells): 0.16 and 0.22 and 0.13

CASP3-1 (sense CCGACAAGCUUGAAUUUAUTT; antisense AUAAAUUCAAGCUUGUCGGTT; chemistry not given here)
HCoV-OC43 replication in siRNA-transfected cells, inhibition (HCoV-OC43 [11]): -3.8 and -7.6 and -9.9 and 15.1 and 8.0 and 7.0

CYP1A1-2 (sense GGGUUUGACACAGUCACAATT; antisense UUGUGACUGUGUCAAACCCTT; chemistry not given here)
Relative mRNA content of the targeted gene after siRNA knockdown (Fig5D) (RD cells): 0.00

ELAC2-2 (sense GCAGAGGGAUGCCAUUAUUTT; antisense AAUAAUGGCAUCCCUCUGCTT; chemistry not given here)
Relative mRNA content of the targeted gene after siRNA knockdown (Fig5D) (RD cells): 0.20 and 0.16 and 0.32

IDH3G-1 (sense GCAAGAGUAUCGCCAAUAATT; antisense UUAUUGGCGAUACUCUUGCTT; chemistry not given here)
Relative mRNA content of the targeted gene after siRNA knockdown (Fig5D) (RD cells): 0.00

IDH3G-2 (sense GCACGUGAGUUCCAAUGCUTT; antisense AGCAUUGGAACUCACGUGCTT; chemistry not given here)
Relative mRNA content of the targeted gene after siRNA knockdown (Fig5D) (RD cells): 0.00

UBP1-1 (sense GCACCCACCCUUUCAGUAUTT; antisense AUACUGAAAGGGUGGGUGCTT; chemistry not given here)
Relative mRNA content of the targeted gene after siRNA knockdown (Fig5D) (RD cells): 0.42 and 0.21 and 0.33
